Experimental data published in publication PMC9298526, “RapD Is a Multimeric Calcium-Binding Protein That Interacts With the Rhizobium leguminosarum Biofilm Exopolysaccharide, Influencing the Polymer Lengths” (Frontiers in Microbiology, 2022).
Several values for one entry are separate records, joined by “and”; a condition that tells them apart may be missing. Equal values may be shown once.

T1: RapD (Rhizobium johnstonii, UniProt Q1MFT2)
T1 construct: gene RL2702
T1 sequence (Q1MFT2 1-277): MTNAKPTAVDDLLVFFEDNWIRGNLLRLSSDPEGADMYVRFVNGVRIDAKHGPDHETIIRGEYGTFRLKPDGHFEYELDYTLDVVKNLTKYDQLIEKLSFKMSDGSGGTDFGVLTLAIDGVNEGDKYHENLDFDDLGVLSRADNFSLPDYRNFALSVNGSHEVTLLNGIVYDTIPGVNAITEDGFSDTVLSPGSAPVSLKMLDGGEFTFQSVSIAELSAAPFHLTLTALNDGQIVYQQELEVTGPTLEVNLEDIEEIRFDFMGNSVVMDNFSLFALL

B1: Recombinant full-length RapD (natural protein, Rhizobium leguminosarum bv. viciae 3841, UniProt Q1MFT2 1-277, looked up)
chain: T1 sequence (Q1MFT2 1-277)
notes: N-terminal Ra/CHDL domain (aa 1-122) and C-terminal region (aa 123-277); Cloned NdeI-NotI into pET-22b; The protein was decalcified with EGTA before calcium was added; also called Apo-RapD; RapD-Apo; source: E. coli BL21 (DE3) carrying pET22brapD, purified (Ni-NTA HiTrap Chelating, dialysis against 10 mM EGTA, Superdex 200); not shown: His tag (from the vector pET-22b)

Experiments:
RapD = molecular target: T1, RapD; test: binding inhibition assay (ELISA): RapD to immobilized EPS; details: with calcium (TBS, 1 mM CaCl2); room temperature; galactose 0-300 mM preincubated with RapD; proteinase K treated Rlv 3841 EPS immobilized; indirect competition read-out
[1] = molecular target: the molecule itself; test: SEC with 90° static light scattering (SLS) and refractometer; Superdex 200, 100 ul of RapD at 1 mg/ml pre-incubated with 1.25 mM CaCl2, 20 mM Tris-HCl, 0.15 M NaCl, pH 8, 0.4 ml/min, 20°C, BSA as standard

Row | Molecule | partial inhibition of EPS binding (RapD) | stoichiometry N [1]
1 | OC[C@H]1OC(O)[C@H](O)[C@@H](O)[C@H]1O (some centres unmarked) [galactose] | RapD interaction with the EPS was partially inhibited in the presence of high concentrations of galactose | –
2 | B1 | – | 3 and 2
